Entries after “also recorded” stand apart in the source; their conditions may differ.
Key:
[1] = tested on: DISC macro-complex (Fas/FADD/Caspase-8); assay: DISC formation: Fas immunoprecipitation and Western blot; assay type: cell-based, human; settings: H9, Jurkat, activated PBTs; non-cytotoxic concentrations; vs untreated cells
Procedure: Cells were incubated with 1 μg/ml APO1-3 for 30 minutes at 4° C. After washing, cells were incubated for 15 minutes at 4° C. (0 minutes) or at 37° C. (15 minutes) and then lysed for 30 minutes at 4° C. in a lysis buffer (25 mM HEPES pH 7.4, 1% Triton X-100, 150 mM NaCl, 2 mM EDTA, a cocktail including protease inhibitors (Sigma)). The lysed cells were then centrifugated for 15 minutes at 15000 rpm in order to eliminate genomic DNA, and the supernatant was kept. The sepharose beads which were coupled with protein A were added to the lysate and the mixture was incubated for 2 hours. The beads were recovered, washed intensively and the immunoprecipitated proteins were re-suspended in a denaturing and reducing buffer (0.01M Tris-HCl pH6.8, 10% glycerol (v/v), 85 mM sodium dodecyl sulfate (SDS), 5% (v/v) […] and 0.005% (w/v) bromophenol blue) then heated at 100° C. for 5 minutes. The samples were deposited in an acrylamide/Bisacrylamide gel and separated by electrophoresis. The proteins were transferred from the gel into a nitrocellulose membrane using a semi-dry medium transfer technique for 2 hours at constant amperage (0.8 mA/cm^2). […] After transfer, the nitrocellulose membrane was saturated with proteins for 30 minutes with a TBST buffer (50 mM Tris pH=8, 0.15M sodium chloride, 0.05% (v/v) Tween-20) containing 5% (w/v) skimmed powdered milk (TBSTM). After washing with TBST, the membrane was incubated for 2 hours with the primary antibody in TBST. The membrane was washed intensively then incubated for one hour with TBST containing the secondary peroxidase-coupled antibody. […] This solution contained a substrate metabolised by peroxidase to yield a luminescent compound, which allowed marking a radiographic film (Amersham).

[2] = tested on: T and B leukemia/lymphoma cell lines and activated PBLs treated with FasL; assay: Fas/CD95-mediated cell death (MTT test); assay type: cell-based, human
Procedure: 2 to 4.10^4 cells were deposited in wells in a 96-well plate. The cells were incubated, in the presence of the different reactants for the times specified, at 37° C. in a final volume of 100 or 200 μl.
The MTT test enabled to measure the activity of a mitochondrial enzyme, the dehydrogenase succinate which transforms MTT (or 3-(4,5-dimethylthiazol-2-yl)-2,5-diphenyltetrazolium) bromide originally yellow in colour and soluble, into blue formazan crystals, insoluble in aqueous phase. Upon completion of the different treatments, the living cells were quantified by adding in each well 15 μl PBS (Phosphate Buffered Saline) containing 5 mg/ml MTT. […] Spectrophotometric reading of absorbance was done at 570 nm. The measurement of the optical density is directly proportional to the number of living cells and the percentage of cell death was calculated with the following formula: 100-[(DO treated cells/DO non-treated cells)*100].

[3] = tested on: intracellular calcium concentration; assay: Intracellular Ca2+ concentration, indo-1 (micro)spectrofluorimetry; assay type: cell-based, human
Procedure: Principle: [Ca^2+]i was measured by microspectrofluorimetry using a calcium sensitive fluorescent probe: indo-1. When excited at 360 nm wavelength, the so-called monoexcitation/double emission indo-1 probe transmitted back in a spectrum ranging from 400 to 500 nm. Binding of Ca^2+ to indo-1 caused displacement of the emission spectrum after excitation. The emission maximum in the unbound form was located around 480 nm. The emission of the complexed form was around 405 nm. An increase of calcium concentration thus caused the emission to increase to 405 nm and the emission to decrease to 480 nm. The ratio of both fluorescence intensities allowed to be independent from the quantity of the probe and to determine the [Ca^2+]i according to the Grynkiewicz equation:
[Ca^2+]i(nM)=Kd.β×(R−Rmin)/(Rmax−R)
Rmax, Rmin and Kd. β were determined by combining electrophysiology (patch clamp) and spectrofluorimetry. Rmax was determined by placing in the patch pipette a medium containing 10 mM CaCl2. Rmin was obtained by placing as an intrapipette solution a calcium-deprived medium (10 mM EGTA).
The cells were then rinsed with HBSS (800 rpm centrifugation for 2 minutes) and placed in an observation chamber on a glass coverslip. […] The excitation light is supplied by a Xenon lamp (100W). […] The substances to be tested were applied using a glass pipette positioned at some twenty μm of the studied cell and connected to a pneumatic system.
The principle as well as the loading of the cells were identical with the measurement on single cells. In such a case, approx. 40,000 cells were placed in a quartz tub under constant agitation. The tub was then placed in a Hitachi spectrofluorimeter whereof the excitation monochromator was set to 350 nm. […] The signals were transmitted to a computer via an analogue/digital converter. So as to be able to apply the Grynkiewicz equation (see above) and translate the fluorescence ratios measured in calcium values, the calibration parameters were entered into the software. The substances to be tested were applied directly in the tube under constant agitation.

CD95 [4] = assay: CD95 capping (CD95-CAP), fluorescence confocal microscopy; assay type: cell-based, human; settings: leukemic cell lines; culture up to 24 hours
Procedure: The cells were left to adhere on a slide pre-treated with poly-L-lysin (ESCO, VWR) for 5 minutes then incubated with the different reactants. The cells activated with the anti-Fas APO1-3 agonist antibody were washed and marked directly with the anti-mouse secondary antibody coupled with Alexa555 fluorochrome. The cells incubated with Rituximab (anti-CD20) were washed in a cold PBS buffer then fixed with a PBS/4% PFA (paraformaldehyde) solution for 15 min. […] The cells were washed in PBS medium then the slide was dried and the cells were placed in a mounting medium, Fluoroprep (Biomerieux) and analysed by fluorescence confocal microscopy (LSM SP5, Leica, Germany) with an x63 zoom. The DAPI (200 ng/ml) allowed colouring the nuclei.

caspase-8 = assay: Caspase-8 activation/cleavage; assay type: cell-based, human
CD95 [5] = assay: CD95 expression; assay type: cell-based, human; settings: 2-APB or BAPTA-AM regimens
Procedure: This technique allowed detecting the presence of a protein on the cell surface. All the steps took place at 4° C. so as to reduce membrane proteins endocytosis and loss of cell labelling.
Plasma membrane of the cells (10^6 cells per marking) was saturated for 5 minutes in 1 ml PBS containing 1% (w/v) BSA (bovine serum albumin) and 1% (v/v) foetal veal serum (FVS). This solution was used for washings and antibody dilutions.
The cells were incubated for 30 minutes with 50 μl primary antibody (anti-Fas DX2 clone at 10 μg/ml), washed twice with the PBS/BSA/FCS solution, then incubated with 50 μl of a secondary antibody coupled with phycoerythrin for 30 minutes. After 3 washings, the cells were re-suspended in 200 μl PBS/BSA/SVF and analysed immediately by flow cytometry (FACsCalibur, BD Biosciences). The fluorescence intensity was analysed with the Cellquest software.

[6] = tested on: Raji, BL2, Jurkat cell lines and activated PBL; assay: Apoptosis % by loss of mitochondrial membrane potential; assay type: cell-based, human; settings: Zoledronate 10 μM in vitro; BL2, Raji and Jurkat, respectively
Procedure: 2 to 4.10^4 cells were deposited in wells in a 96-well plate. The cells were incubated, in the presence of the different reactants for the times specified, at 37° C. in a final volume of 100 or 200 μl. The apoptotic cells were identified in the cellular populations by measuring mitochondrial de-polarisation. […] These potentiometric probes allowed monitoring the variations of the mitochondrial membrane potential. […] Following cell treatment with the different drugs, the former were placed in the presence of TMRM or DIOC6 at 10 nM concentration, for 20 minutes at 37° C. then the fluorescence of the cells was analysed by flow cytometry.

[7] = Mice calcemia after Zoledronate injection; assay type: in vivo; settings: 4 mg/kg, one injection per week, 4 weeks, blood 3 days after last injection
Procedure: Blood samples were taken from mice 3 days after the last Zoledronate or vehicle injection and calcemia was assessed by COBAS INTEGRA Calcium® (Roche) micro-method.

Raji cells = assay: Raji B lymphoma tumour growth in Rag2-/-γ-/- mice; assay type: in vivo; settings: Raji s.c.; single agent; Rituximab 2 mg/kg, Zoledronate 4 mg/kg
Procedure: The implantation of the tumours was done subcutaneously in Rag2−/−γ−/− mice flank aged from 5 to 7 weeks. Following implantation of the tumours, the mice were divided in groups of 8 to 10 animals for each treatment. The size of the tumour was assessed every day by measuring its width (w) and its length (I). Its volume was calculated according to the formula: V=lw^2/2. At the end of the experiment, the animals were sacrified, the tumour weight was measured.
From 10^6 Raji cells were implanted subcutaneously in mice flank. The effects of Rituximab alone, of Zoledronate alone, are assessed on the growth of tumours. Rituximab (2 mg/kg) was delivered 3 times a week, Zoledronate was delivered 1 time a week.

SMILES: NCCOB(c1ccccc1)c1ccccc1 [2-APB, 2-Aminoethoxydiphenyl borate]
- DISC formation / FADD recruitment upon CD95 stimulation [1]: dramatically improved the DISC formation; also recorded: induction of DISC formation
- CD95-mediated apoptotic signal in CD95-resistant cells ([2]; Jurkat-CD95Q257K, pre-incubation with non-cytotoxic doses): restored the CD95-mediated apoptotic signal at a level comparable to the parental cell line
- potentiation of FasL response ([2]; high doses of 2-APB (44 μM), T or B lymphoma/leukemic cell lines): potentiated FasL response; also recorded: sensitizes drastically the Fas apoptotic signal
- apoptotic signal by the agent alone ([2]; leukemic cell lines, long-term culture up to 24 hours, no CD95L): did not trigger the apoptotic signal
- increase in intracellular calcium induced by Thapsigargin and by extracellular calcium 0 to 5 mM ([3]; 2-APB 44 μM): reduced the increase in the intracellular calcium concentration
- concentration of intracellular calcium ([3]; high doses of 2-APB, T or B lymphoma cell lines): induced decreasing concentration of intracellular calcium
- CD95-mediated peak of calcium ([3]; non-cytotoxic concentrations, CD95 stimulation): totally abrogated the CD95-mediated peak of calcium
- basal [Ca2+]i ([3]; pre-incubation of cells): induced a faint decrease in the basal [Ca^2+]i
- CD95-CAP formation (CD95 [4]): drives CD95-CAP
- kinetic of caspase-8 cleavage upon CD95L (caspase-8; T and B-cell lines): accelerated the cleavage of the initiator caspase-8
- caspase-8 activation or mitochondrial depolarization by the agent alone (caspase-8; during 60 minutes treatment, no CD95L): no trace of caspase-8 activation or mitochondrial depolarization was detected
- expression of CD95 (CD95 [5]): did not modify the expression of CD95

SMILES: O=P(O)(O)C(O)(Cn1ccnc1)P(=O)(O)O [Zoledronate, zoledronate]
- potentiation of apoptotic response to TRAIL, RTX and FasL [6]: does not potentiate the apoptotic response
- intracellular calcium concentration ([3]; Zoledronate in vitro, all model cell lines tested): did not affect intracellular calcium concentration
- calcemia vs vehicle [7]: significant (p<0.05) decrease in their calcemia
- tumour mass vs vehicle (Raji cells): not significantly affected
